How the values were obtained:
[1] = cited from earlier work; for Physiological Charge: physiological pH
in vitro = settings: human
Protocol: (§1) Protein Binding by BioSPME was studied. A 96-pin device was prepared with an […] pre-coating and PAN/C18 BioSPME coating. Human plasma and buffer were spiked at a therapeutically relevant concentration and incubated for one hour at 37° C. while shaking at 300 rpm. After the incubation, 200 μL plasma and buffer were loaded into separate columns on to the extraction well plate (n=8). The determination of the protein binding was determined by automated robotic method using the BioSPME C18 96-pin tool. Briefly, the pin tool is conditioned for twenty minutes static in isopropanol, then it is transferred into a new well plate for 10 seconds in water (wash step). This is followed by the extraction step. The pin tool is transferred into the preloaded extraction plate described earlier. Here, the pin tool extracts the analytes while shaking at 1200-1250 rpm at 37° C. for 15 minutes. The pin tools return to the water solution for a 60 seconds wash and finally transferred into a desorption plate. The desorption solution is a 80:20 methanol:water and desorbs for 20 minutes under static conditions. Samples were analyzed using methods described in Tables 5 and 6.
(§2) The extraction plates used in this study included both plastic and glass-coated plates. The choice of the plate depended on the compound properties and how well the compound behaved in buffer solution.
(§3) Determination of % Free Fraction (Fu) by BioSPME
(§4) BioSPME method determines the free concentration of analyte in plasma by comparing it with the extraction of the analyte from buffer samples where 100% of the analyte is considered to be free of protein biding.
(§5) The percent free or percent unbound is determined in Eq. 1:
(§6) where concentration free represents the unbound concentration of the analyte in the matrix in this case plasma, and concentration total represents the total concentration of analyte. The amount extracted is independent of units and can be applied using preferred quantities (e.g. nanograms or moles) Mfree, and extraction volume of plasma, Vplasma. The concentration of analyte in the desorption solution is quantified by an external calibration curve, and if the desorption volume is equal to the plasma and buffer extraction volumes, the concentration from desorption will be equal to the extracted concentration as shown in Eq 2.
(§7) The bound fraction, FB, can be determined from the extracted concentrations as shown in Eq 6.
(§8) In cases where depletion of compounds from plasma was pronounced upon BioSPME extraction (extraction exceeded 5% of total spiked analyte), a correction to the calculated Bound Fraction was required as described below:
(§9) where B and P, represent the respective amounts extracted from buffer, B, and plasma, P. B^0 represents the concentration the samples were spiked originally.

Human plasma = assay: in vitro
Protocol: as §1, §2, §3, §4, §5, §6, §7, §8, §9

[2] = Non-specific binding to plastic extraction plates; format: in vitro ADME; settings: plastic versus glass-coated 96-well extraction plates, buffer solution
Source text: as §2

[3] = human plasma, spiked 100 ng/mL, 200 μL sample, 37° C., n = 8

SMILES	Physiological Charge [1]	fraction unbound at 1 h, 100 ng/mL (in vitro; plasma)	Ave. Buffer Extracted (Human plasma; 15 min, 100 ng/mL) [ng/mL]	Ave. Plasma Extracted (Human plasma; human, 15 min, 100 ng/mL) [ng/mL]	Ave. FB(%) (bound fraction) (Human plasma; human, 1 h, 100 ng/mL)	further results
C[C@]12C=CC(=O)C=C1CC[C@@H]1[C@@H]2[C@@H](O)C[C@@]2(C)[C@H]1CC[C@]2(O)C(=O)CO [prednisolone]	0	0.218	62.1	13.5	78.2	–
CC(=O)N1CCN(c2ccc(OCC3COC(Cn4ccnc4)(c4ccc(Cl)cc4Cl)O3)cc2)CC1 (centres unmarked) [Ketoconazole]	0	–	–	–	–	non-specific binding to plastic [2]: exhibit non-specific biding to plastic; pKa [1]: 6.75; fraction unbound at 1 h, 500 ng/mL (in vitro; human plasma): 0.032; Ave. Buffer Extracted (Human plasma; 15 min, 500 ng/mL): 282.4 ng/mL; Ave. FB(%) (bound fraction) (Human plasma; human plasma, spiked 500 ng/mL, 200 μL sample, 37° C., n = 8): 96.8%; Ave. Plasma Extracted (Human plasma; human, 15 min, 500 ng/mL): 20.0 ng/mL
Cc1ccc(-c2nc3ccc(C)cn3c2CC(=O)N(C)C)cc1 [Zolpidem]	0	0.031	–	–	–	Ave. Buffer Extracted (Human plasma; buffer, spiked 100 ng/mL, 200 μL sample, n = 8): 68.4 ng/mL; Ave. FB(%) (bound fraction) (Human plasma; [3]): 96.9%; Ave. Plasma Extracted (Human plasma; human plasma, spiked 100 ng/mL, 200 μL sample, n = 8): 2.1 ng/mL
CC[C@H]1OC(=O)[C@H](C)[C@@H](O[C@H]2C[C@@](C)(OC)[C@@H](O)[C@H](C)O2)[C@H](C)[C@@H](O[C@@H]2O[C@H](C)C[C@H](N(C)C)[C@H]2O)[C@](C)(O)C[C@@H](C)C(=O)[C@H](C)[C@@H](O)[C@]1(C)O [Erythromycin]	–	0.182	35.0	6.5	81.8	–
O=C1CC2(CCCC2)CC(=O)N1CCCCN1CCN(c2ncccn2)CC1 [Buspirone]	–	–	–	–	–	pKa [1]: 4.12
CCn1cc(C(=O)O)c(=O)c2ccc(C)nc21 [Nalidixic Acid]	–	–	–	–	–	Log P [1]: 1.59; fraction unbound at 1 h, 2000 ng/mL (in vitro; plasma): 0.03; Ave. Buffer Extracted (Human plasma; 15 min, 2000 ng/mL): 16.35 ng/mL; Ave. Plasma Extracted (Human plasma; human, 15 min, 2000 ng/mL): 0.5 ng/mL; Ave. FB(%) (bound fraction) (Human plasma; human, 1 h, 2000 ng/mL): 97.0%
NC(=O)N1c2ccccc2C=Cc2ccccc21 [Carbamazepine]	0	0.236	34.7	8.2	76.4	–
CC(C)NCC(O)COc1cccc2ccccc12 (centres unmarked) [Propranolol]	1	0.095	18.3	1.7	90.5	–
CN(C)CCCN1c2ccccc2CCc2ccccc21 [Imipramine]	1	–	65.4	12.2	–	non-specific binding to plastic [2]: exhibit non-specific biding to plastic; fraction unbound at 1 h, 100 ng/mL (in vitro; human plasma): 0.074; Ave. FB(%) (bound fraction) (Human plasma; [3]): 92.6%
CC(=O)CC(c1ccccc1)c1c(O)c2ccccc2oc1=O (centres unmarked) [Warfarin]	–	–	–	–	–	fraction unbound at 1 h, 2500 ng/mL (in vitro; plasma): 0.002; Ave. Buffer Extracted (Human plasma; 15 min, 2500 ng/mL): 10.0 ng/mL; Ave. Plasma Extracted (Human plasma; human, 15 min, 2500 ng/mL): <0.1 ng/mL; Ave. FB(%) (bound fraction) (Human plasma; human, 1 h, 2500 ng/mL): 99.8%

— patent US20240009651A1, “PRE-COATINGS FOR BIOCOMPATIBLE SOLID PHASE MICROEXTRACTION DEVICES” (SIGMA-ALDRICH CO. LLC, priority 2020, published 2024)
